Results taken from US9155693B2, “Solubilized magnolol analogs” (Colgate-Palmolive Company, priority 2011, dated 2015).

Legend:
[1] = type: physicochemical
Description: The PPG-1-PEG-9 lauryl glycol ether is capable of solubilizing up to 100 g per liter of neat propyl magnolol or isopropyl magnolol or up to 50 g per liter of butyl magnolol or isobutyl magnolol. In certain embodiments, the amount of PPG-1-PEG-9 lauryl glycol ether is at least 10 times the weight of the propyl magnolol or isopropyl magnolol in the composition. In certain embodiments, the amount of PPG-1-PEG-9 lauryl glycol ether is at least 20 times the weight of butyl or isobutyl magnolol in the composition.
PPG-1-PEG-9 lauryl glycol ether is available as Eumulgin™ L from Cognis Corporation.

[2] = Solubility of magnolol analogs in the combination of PPG-1-PEG-9 lauryl glycol ether, coceth-7 and PEG-40 hydrogenated castor oil (Eumulgin HPS); type: physicochemical; conditions: PPG-1-PEG-9 lauryl glycol ether in combination with coceth-7 and PEG-40 hydrogenated castor oil (Eumulgin HPS)
Description: The PPG-1-PEG-9 lauryl glycol ether can also be included in combination with coceth-7 and PEG-40 hydrogenated castor oil. This combination is available as Eumulgin™ HPS from Cognis Corporation. When this combination is used, the solubility stays the same except for butyl magnolol. This combination solubilizes up to 100 g per liter of butyl magnolol as compared to up to 50 g per liter for PPG-1-PEG-9 lauryl glycol ether alone. In certain embodiments, the amount of this combination is at least 10 times the weight of butyl magnolol.

Structure (SMILES) | amount solubilized by PPG-1-PEG-9 lauryl glycol ether [1] | amount solubilized by the combination [2]
CCCCc1ccc(O)c(-c2cc(CCCC)ccc2O)c1 [butyl magnolol, 5,5′-di-n-butylbiphenyl-2,2′-diol] | up to 50 g per liter | up to 100 g per liter
CC(C)Cc1ccc(O)c(-c2cc(CC(C)C)ccc2O)c1 [isobutyl magnolol, 5,5′-di-isobutylbiphenyl-2,2′-diol] | up to 50 g per liter | 
CC(C)c1ccc(O)c(-c2cc(C(C)C)ccc2O)c1 [isopropyl magnolol, 5,5′-di-isopropylbiphenyl-2,2′-diol] | up to 100 g per liter | 
CCCc1ccc(O)c(-c2cc(CCC)ccc2O)c1 [propyl magnolol, 5,5′-di-n-propylbiphenyl-2,2′-diol] | up to 100 g per liter | 
